{
  "source": "patent US10245262B2",
  "about": "“Immunological reagents and uses therefor” (THE UNIVERSITY OF QUEENSLAND, priority 2014, dated 2019)",
  "key": {"human MR1": {"target": "T1, human MR1 (Homo sapiens, UniProt Q95460, C283S)", "T1 construct": "Soluble human MR1 a.a; made in house", "T1 sequence (Q95460 with tags, fused parts or gaps C283S)": "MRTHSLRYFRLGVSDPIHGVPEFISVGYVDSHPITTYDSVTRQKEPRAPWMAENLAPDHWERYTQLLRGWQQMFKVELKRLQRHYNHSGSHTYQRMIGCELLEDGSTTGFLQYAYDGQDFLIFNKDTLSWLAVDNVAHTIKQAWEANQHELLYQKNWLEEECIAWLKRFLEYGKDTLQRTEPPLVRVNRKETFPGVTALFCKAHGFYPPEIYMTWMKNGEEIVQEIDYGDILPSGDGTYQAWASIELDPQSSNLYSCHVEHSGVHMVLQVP", "T1 sequence (P61769 21-119 partner)": "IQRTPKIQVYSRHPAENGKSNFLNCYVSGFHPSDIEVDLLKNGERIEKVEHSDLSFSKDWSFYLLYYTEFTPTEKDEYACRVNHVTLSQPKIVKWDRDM", "assay": "Refolding of MR1 and β2m with ligand", "assay_type": "binding"}, "Jurkat.MAIT cells": {"system": "Jurkat.MAIT cells", "assay": "Activation of Jurkat.MAIT cells (CD69 upregulation) co-incubated with C1R.MR1 cells", "assay_type": "cell-based", "conditions": "for Jurkat.MAIT activation compared to 5-A-RU added by itself: compound added with 5-A-RU to C1R.MR1 cells", "description": "(§1) Jurkat cells transduced with genes encoding a MAIT TCR comprising the TRAV1-2-TRAJ33 invariant α chain, and a TRBV6-1 β chain, or SKW cells transduced with genes encoding the TRAV1-2-TRAJ33 invariant α chain with either w.t. Tyr95 or mutated Tyr95Ala or Tyr95Phe residues, paired with a TRBV6-1 β chain, were tested for activation by co-incubation with bacterial culture supernatant or compounds and C1R antigen presenting cells expressing MR1 (CIR.MR1, with Jurkat.MAIT cells), or C1R cells (SKW.MAIT cells) for 16 hr. Cells were subsequently stained with PE-Cy7-conjugated anti-CD3 (eBioscience), and APC-conjugated anti-CD69 (BD) antibodies as well as biotinylated anti-MR1 mAb 26.5 (Huang S. et al (2005)), followed by Streptavidin-PE (BD), before analysis by flow cytometry. Activation of Jurkat.MAIT or SKW.MAIT cells was measured by an increase in surface CD69 expression. MR1 expression was detected on gated C1R.MR1 cells in the same assay."}, "C1R.MR1 cells": {"system": "C1R.MR1 cells", "assay": "Detection of MR1 expression on C1R.MR1 cells (mAb 26.5 staining)", "assay_type": "cell-based", "conditions": "for MR1 upregulation compared to 5-A-RU added by itself: compound added with 5-A-RU to C1R.MR1 cells", "description": "as §1"}, "SKW.MAIT cells": {"system": "SKW.MAIT cells", "assay": "Activation of wild-type, Y95A or Y95F mutant SKW.MAIT cells with C1R cells", "assay_type": "cell-based", "conditions": "compound added to C1R cells", "excerpt": "FIG. 4 is a graph showing MR1-Ag tetramers and MAIT activation. […] (c) EICs of m/z 315.09, or m/z 317.10. (d) (i) Activation assay and (ii) MR1 upregulation with 5-A-RU, methylglyoxal (MG), butane-2,3-dione (BD), glyoxal (G), or rRL-6-CH2OH. MFI of 26.5-PE antibody staining (e) (i) CD69 upregulation and (ii) MR1 upregulation with 5-A-RU, MG, BD, or G. MFI of 26.5-PE. (f) Activation of wild-type, Y95A, or Y95F mutant SKW.MAIT cells by 5-A-RU. Mean of triplicates with SEM. Experiments were performed at least twice (b, c, f) or 3 times (a, d, e).\nas §1, with “Cells were subsequently stained with PE-Cy7-conjugated anti-CD3 (eBioscience), and APC-conjugated anti-CD69 (BD) antibodies as well as biotinylated anti-MR1 mAb 26.5 (Huang S. et al (2005)), followed by Streptavidin-PE (BD), before analysis by flow cytometry.” left out"}, "MR1 [1]": {"system": "MR1", "conditions": "cited from earlier work"}, "MR1 [2]": {"system": "MR1", "assay": "Crystal structure of MAIT TCR-MR1-Ag complexes", "assay_type": "binding, human", "description": "Crystals of the soluble MAIT TCR-MR1-Ag complexes were obtained using the hanging drop vapour diffusion method. The MR1-2M-5-OP-RU, MR1-2M-5-OE-RU, MR1, MR1-K43A-2M-5-OP-RU and MAIT TCR were concentrated to 4 mg/ml, mixed in a 1:1 molar ratio, then […] of a precipitant solution consisting 0.1 M bis-tris propane pH 6.3, 0.2 M sodium acetate and varying concentrations of PEG 3350 between 8-14% w/v. Crystals were observed after incubation at 20° C. for 24 hours in dark conditions and cryoprotected prior to diffraction experiments by soaking in the crystallisation condition modified with between 10-15% v/v glycerol before cooling to 100K. Diffraction images were collected at the Australian Synchrotron MX2 beamline diffracting in a C2 spacegroup to 2.50 Å, 2.10 Å and 2.20 Å for the MR1-2M-5-OP-RU, MR1-2M-5-OE-RU, and MR1-K43A-2M-5-OP-RU complexes with the MAIT TCR respectively. The data were processed using Mosflm version 7.0.9 and scaled using AIMLESS or SCALA (MR1-K43A-2M-5-OP-RU only) from the CCP4 Suite. The phase problem was solved by molecular replacement using PHASER (McCoy A. J. (2007)), using MR1 ternary complex (PDB code 4L4T) (Patel O. et al (2013)) with CDR loops and ligands removed and using the Rfree reflection set from the model. […]"}, "[3]": {"conditions": "for half-life: buffer", "description": "FIG. 7 is a graph showing stability of 5-OP-RU (a) Reaction between 5-A-RU (0.5 mM) and methylglyoxal (3 eq) at pH 6.8, 37° C. in MilliQ water. RL-6-Me represents 6-methyl-8-D-ribityllumazine. (b) Stability of purified 5-OP-RU (65 μM) at pH 6.8 and 37° C. […] (c) Stability of purified 5-OP-RU (65 μM) at variable pH in aqueous TBS buffer (10 mM Tris, 150 mM NaCl, pH 8.0), MilliQ water (pH 6.8), or ammonium acetate buffer (20 mM, pH 5.4) at 15° C.\nThe purified 5-OP-RU was dissolved in aqueous TBS buffer (10 mM Tris, 150 mM NaCl, pH 8.0), MilliQ water (pH 6.8), or aqueous ammonium acetate buffer (20 mM, pH 5.4). The consumption of 5-OP-RU was immediately monitored by LCMS. The initial concentration was quantified by comparing to a standard solution of known concentration."}, "MAIT cells": {"system": "MAIT cells", "assay": "MAIT cell accumulation in lungs after intranasal S. Typhimurium infection", "assay_type": "in vivo, mice", "conditions": "with BR509ΔribDH (10^7) i.n.; 200 μl of 1.52 μM i.v. at d1, d3, d5; day 7 post infection"}, "[4]": {"conditions": "compound added alone to C1R.MR1 cells"}},
  "note": "Read-outs that look alike come from different tables or passages of the source.",
  "data": [
    {"molecule": "Nc1c(NC[C@H](O)[C@H](O)[C@H](O)CO)[nH]c(=O)[nH]c1=O", "note": "[5-A-RU, 5-amino-6-D-ribitylaminouracil]", "values": [
      {"measurement": "MR1-ligand complex on refolding MR1 with the compound alone", "setting": "human MR1", "value": "undetectable"},
      {"measurement": "activation of Jurkat.MAIT cells", "setting": "Jurkat.MAIT cells; [4]", "value": "activation of Jurkat.MAIT cells"},
      {"measurement": "MR1 cell surface upregulation", "setting": "C1R.MR1 cells; [4]", "value": "MR1 cell surface upregulation"},
      {"measurement": "recognition by SKW.MAIT cells with Tyr95α mutated to Ala95 or Phe95", "setting": "SKW.MAIT cells", "value": "ablated recognition"}
    ]},
    {"molecule": "Cc1nc2c(=O)[nH]c(=O)nc-2n(C[C@H](O)[C@H](O)[C@H](O)CO)c1O", "note": "[RL-6-Me-7-OH, 7-hydroxy-6-methyl-8-D-ribityllumazine]", "values": [
      {"measurement": "binding mode in the MR1 cleft", "setting": "MR1 [1]", "value": "non-covalently bound within MR1"}
    ]},
    {"molecule": "Cc1cc2nc3c(=O)[nH]c(=O)nc-3n(C[C@H](O)[C@H](O)[C@H](O)CO)c2cc1C", "note": "[riboflavin]", "values": [
      {"measurement": "effect of riboflavin added during culture of NZ9000 on MAIT cell activation by the supernatant", "setting": "Jurkat.MAIT cells; L. lactis NZ9000 supernatant, 3 μg/ml riboflavin", "value": "inhibited MAIT cell activation"}
    ]},
    {"molecule": "O=CC=O", "note": "[glyoxal]", "values": [
      {"measurement": "MR1-Ag complex on refolding MR1 in the presence of 5-A-RU and the compound", "setting": "human MR1", "value": "led to a correctly folded MR1-Ag complex"},
      {"measurement": "Jurkat.MAIT activation compared to 5-A-RU added by itself", "setting": "Jurkat.MAIT cells", "value": "increase in Jurkat.MAIT activation"},
      {"measurement": "MR1 upregulation compared to 5-A-RU added by itself", "setting": "C1R.MR1 cells", "value": "further increase in MR1 upregulation"}
    ]},
    {"molecule": "CC(=O)C=O", "note": "[methylglyoxal]", "values": [
      {"measurement": "MR1-Ag complex on refolding MR1 in the presence of 5-A-RU and the compound", "setting": "human MR1", "value": "led to a correctly folded MR1-Ag complex"},
      {"measurement": "Jurkat.MAIT activation compared to 5-A-RU added by itself", "setting": "Jurkat.MAIT cells", "value": "increase in Jurkat.MAIT activation"},
      {"measurement": "MR1 upregulation compared to 5-A-RU added by itself", "setting": "C1R.MR1 cells", "value": "further increase in MR1 upregulation"}
    ]},
    {"molecule": "reduced 6-hydroxymethyl-8-D-ribityllumazine [rRL-6-CH2OH]", "values": [
      {"measurement": "recognition by SKW.MAIT cells with Tyr95α mutated to Ala95 or Phe95", "setting": "SKW.MAIT cells", "value": "ablated recognition"}
    ]},
    {"molecule": "O=CC=Nc1c(NC[C@H](O)[C@H](O)[C@H](O)CO)[nH]c(=O)[nH]c1=O", "note": "[5-OE-RU, 5-(2-oxoethylideneamino)-6-D-ribitylaminouracil]", "values": [
      {"measurement": "binding mode in the MR1 cleft", "setting": "MR1 [2]", "value": "formed a Schiff base with Lys43 of MR1"},
      {"measurement": "stability (in words)", "setting": "[3]", "value": "relatively unstable"}
    ]},
    {"molecule": "CC(=O)C=Nc1c(NC[C@H](O)[C@H](O)[C@H](O)CO)[nH]c(=O)[nH]c1=O", "note": "[5-OP-RU, 5-(2-oxopropylideneamino)-6-D-ribitylaminouracil]", "values": [
      {"measurement": "binding mode in the MR1 cleft", "setting": "MR1 [2]", "value": "formed a Schiff base with Lys43 of MR1"},
      {"measurement": "accumulation of MAIT cells in lungs", "setting": "MAIT cells", "value": "accumulation is observed"},
      {"measurement": "half-life", "setting": "[3]; pH 5.4", "value": 49, "unit": "min"},
      {"measurement": "half-life", "setting": "[3]; pH 6.8", "value": "around 2 h"}
    ]},
    {"molecule": "CC(=O)C(C)=O", "note": "[butane-2,3-dione]", "values": [
      {"measurement": "MR1-Ag complex on refolding MR1 in the presence of 5-A-RU and the compound", "setting": "human MR1", "value": "failed to yield any MR1-Ag complexes"},
      {"measurement": "Jurkat.MAIT activation compared to 5-A-RU added by itself", "setting": "Jurkat.MAIT cells", "value": "nor was there an increase in Jurkat.MAIT activation"},
      {"measurement": "MR1 upregulation compared to 5-A-RU added by itself", "setting": "C1R.MR1 cells", "value": "not enhanced"}
    ]}
  ]
}
